In patent US11572399B2, “Long-acting GIP peptide analogues” (University of Copenhagen, priority 2017, dated 2023):
Peptide text beside a SMILES is read from it. * marks the point of attachment. C16 diacid = O=C(O)CCCCCCCCCCCCCCC(=O)*; Lauroyl = CCCCCCCCCCCC(=O)*

Molecular target: T1, human GIP receptor (Homo sapiens, UniProt P48546)
T1 construct: host or cells: COS-7, transient transfection (calcium phosphate), cDNA in pCMV-Script
T1 sequence (P48546 22-466): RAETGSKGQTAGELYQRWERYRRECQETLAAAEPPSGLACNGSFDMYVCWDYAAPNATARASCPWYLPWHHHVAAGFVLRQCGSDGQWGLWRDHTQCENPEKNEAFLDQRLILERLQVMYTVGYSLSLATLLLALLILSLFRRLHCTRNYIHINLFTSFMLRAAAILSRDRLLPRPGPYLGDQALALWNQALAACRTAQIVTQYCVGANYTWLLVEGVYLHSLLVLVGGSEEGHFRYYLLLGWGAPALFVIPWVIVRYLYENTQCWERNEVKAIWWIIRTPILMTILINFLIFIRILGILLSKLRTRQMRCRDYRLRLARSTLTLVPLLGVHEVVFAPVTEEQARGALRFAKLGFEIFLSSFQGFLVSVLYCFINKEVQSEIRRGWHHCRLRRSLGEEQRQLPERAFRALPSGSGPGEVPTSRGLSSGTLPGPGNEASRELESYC
Assay: cAMP accumulation assay, agonism (ligand alone)
Assay type: cell-based
Conditions: COS-7 cells, Table 1; for Emax: COS-7, intrinsic cAMP activity; for EC50: read-out: cAMP agonism nM (EC50)
Description: COS-7 cells were cultured at 10% CO2 and 37° C. in Dulbecco's modified Eagle's medium 1885 supplemented with 10% fetal bovine serum, 2 mM glutamine, 180 units/ml penicillin, and 45 µg/ml streptomycin. Transient transfection of the COS-7 cells for cAMP accumulation and competition binding was performed using the calcium phosphate precipitation method with the addition of chloroquine^46-47.
Transient transfected COS-7 cells expressing the human GIP receptor were seeded in white 96-well plates with a density of 3.5*10^4/well. The day after, the cells were washed twice with Hepes buffered saline (HBS) buffer and incubated with HBS and 1 mM 3-isobutyl-1-methylxanthine (IBMX) for 30 min at 37° C. To test for agonistic properties, ligands were added and incubated for 30 min at 37° C. In order to test for antagonistic properties, the cells were preincubated with the antagonists for 10 min prior to the addition of the agonist and subsequent incubated for 20 additional min. The HitHunter™ cAMP XS assay (DiscoveRx) was carried out according to the manufacturer's instructions.
IC50, EC50, and Ki values were determined by nonlinear regression. These were carried out with the GraphPad Prism 6.0 software (GraphPad, San Diego, Calif., USA) and Microsoft Excel™. Ki values were based on the formula for one class of binding sites in homologous competition binding studies and the Cheng Prussoffs formula, respectively (DeBlasi et al., 1989). To determine the HSA binding potential, the fold change in affinity (as determined by IC50) was calculated as IC50 (plus HSA)/IC50 (minus HSA).

SMILES | Emax | EC50
CCCCCCCCCCCC(=O)NCCCC[C@H](NC(=O)[C@H](CCC(N)=O)NC(=O)[C@H](C)NC(=O)[C@H](CC(C)C)NC(=O)[C@H](CC(C)C)NC(=O)[C@H](Cc1c[nH]c2ccccc12)NC(=O)[C@H](CC(N)=O)NC(=O)[C@@H](NC(=O)[C@H](Cc1ccccc1)NC(=O)[C@H](CC(=O)O)NC(=O)[C@H](CCC(N)=O)NC(=O)[C@H](CCC(N)=O)NC(=O)[C@H](C)NC(=O)[C@@H](NC(=O)[C@H](CCCCN)NC(=O)[C@H](CCC(=O)O)NC(=O)[C@H](CCSC)NC(=O)[C@H](C)NC(=O)[C@@H](NC(=O)[C@H](CO)NC(=O)[C@H](Cc1ccc(O)cc1)NC(=O)[C@H](CC(=O)O)NC(=O)[C@H](CO)NC(=O)[C@@H](NC(=O)[C@H](Cc1ccccc1)NC(=O)[C@@H](NC(=O)CNC(=O)[C@@H](N)CCC(=O)O)[C@@H](C)O)[C@@H](C)CC)[C@@H](C)CC)[C@@H](C)CC)C(C)C)C(N)=O [AT130, [hGIP(3-30)NH2[D15E; H18A]-C12/30]] (H-EGTFISDYSIAMEKIAQQDFVNWLLAQK(Lauroyl)-NH2; N-terminus assumed) | 49% | 
CC[C@H](C)[C@H](NC(=O)[C@H](CO)NC(=O)[C@H](Cc1ccc(O)cc1)NC(=O)[C@H](CC(=O)O)NC(=O)[C@H](CO)NC(=O)[C@@H](NC(=O)[C@H](Cc1ccccc1)NC(=O)[C@@H](NC(=O)CNC(=O)[C@@H](N)CCC(=O)O)[C@@H](C)O)[C@@H](C)CC)C(=O)N[C@@H](C)C(=O)N[C@@H](CCSC)C(=O)N[C@@H](CC(=O)O)C(=O)N[C@@H](CCCCN)C(=O)N[C@H](C(=O)N[C@@H](Cc1c[nH]cn1)C(=O)N[C@@H](CCCCNC(=O)CCCCCCCCCCCCCCC(=O)O)C(=O)N[C@@H](CCC(N)=O)C(=O)N[C@@H](CC(=O)O)C(=O)N[C@@H](Cc1ccccc1)C(=O)N[C@H](C(=O)N[C@@H](CC(N)=O)C(=O)N[C@@H](Cc1c[nH]c2ccccc12)C(=O)N[C@@H](CC(C)C)C(=O)N[C@@H](CC(C)C)C(=O)N[C@@H](C)C(=O)N[C@@H](CCC(N)=O)C(=O)N[C@@H](CCCCN)C(N)=O)C(C)C)[C@@H](C)CC [AT308, [hGIP(3-30)NH2[Q19K]-C16diacid/19]] (H-EGTFISDYSIAMDKIHK(C16 diacid)QDFVNWLLAQK-NH2; N-terminus assumed) | 7.9% | 
CC[C@H](C)[C@H](NC(=O)[C@H](CO)NC(=O)[C@H](Cc1ccc(O)cc1)NC(=O)[C@H](CC(=O)O)NC(=O)[C@H](CO)NC(=O)[C@@H](NC(=O)[C@H](Cc1ccccc1)NC(=O)[C@@H](NC(=O)CNC(=O)[C@@H](N)CCC(=O)O)[C@@H](C)O)[C@@H](C)CC)C(=O)N[C@@H](C)C(=O)N[C@@H](CCSC)C(=O)N[C@@H](CC(=O)O)C(=O)N[C@@H](CCCCN)C(=O)N[C@H](C(=O)N[C@@H](Cc1c[nH]cn1)C(=O)N[C@@H](CCC(N)=O)C(=O)N[C@@H](CCC(N)=O)C(=O)N[C@@H](CC(=O)O)C(=O)N[C@@H](Cc1ccccc1)C(=O)N[C@H](C(=O)N[C@@H](CC(N)=O)C(=O)N[C@@H](Cc1c[nH]c2ccccc12)C(=O)N[C@@H](CCCCNC(=O)CCCCCCCCCCCCCCC(=O)O)C(=O)N[C@@H](CC(C)C)C(=O)N[C@@H](C)C(=O)N[C@@H](CCC(N)=O)C(=O)N[C@@H](CCCCN)C(N)=O)C(C)C)[C@@H](C)CC [AT315, [hGIP(3-30)NH2[L26K]-C16diacid/26]] (H-EGTFISDYSIAMDKIHQQDFVNWK(C16 diacid)LAQK-NH2; N-terminus assumed) | 5.9% | 183 nM
CC[C@H](C)[C@H](NC(=O)[C@H](CCCCN)NC(=O)[C@H](CC(=O)O)NC(=O)[C@H](CCSC)NC(=O)[C@H](C)NC(=O)[C@H](CCCCNC(=O)CCCCCCCCCCCCCCC(=O)O)NC(=O)[C@H](CO)NC(=O)[C@H](Cc1ccc(O)cc1)NC(=O)[C@H](CC(=O)O)NC(=O)[C@H](CO)NC(=O)[C@@H](NC(=O)[C@H](Cc1ccccc1)NC(=O)[C@@H](NC(=O)CNC(=O)[C@@H](N)CCC(=O)O)[C@@H](C)O)[C@@H](C)CC)C(=O)N[C@@H](Cc1c[nH]cn1)C(=O)N[C@@H](CCC(N)=O)C(=O)N[C@@H](CCC(N)=O)C(=O)N[C@@H](CC(=O)O)C(=O)N[C@@H](Cc1ccccc1)C(=O)N[C@H](C(=O)N[C@@H](CC(N)=O)C(=O)N[C@@H](Cc1c[nH]c2ccccc12)C(=O)N[C@@H](CC(C)C)C(=O)N[C@@H](CC(C)C)C(=O)N[C@@H](C)C(=O)N[C@@H](CCC(N)=O)C(=O)N[C@@H](CCCCN)C(N)=O)C(C)C [AT303, [hGIP(3-30)NH2[I12K]-C16diacid/12]] (H-EGTFISDYSK(C16 diacid)AMDKIHQQDFVNWLLAQK-NH2; N-terminus assumed) | 24.2% | 28 nM
CCCCCCCCCCCCCCCC(=O)NCCCC[C@H](NC(=O)[C@H](CCC(N)=O)NC(=O)[C@H](C)NC(=O)[C@H](CC(C)C)NC(=O)[C@H](CC(C)C)NC(=O)[C@H](Cc1c[nH]c2ccccc12)NC(=O)[C@H](CC(N)=O)NC(=O)[C@@H](NC(=O)[C@H](Cc1ccccc1)NC(=O)[C@H](CC(=O)O)NC(=O)[C@H](CCC(N)=O)NC(=O)[C@H](CCC(N)=O)NC(=O)[C@H](Cc1c[nH]cn1)NC(=O)[C@@H](NC(=O)[C@H](CCCCN)NC(=O)[C@H](CC(=O)O)NC(=O)[C@H](CCSC)NC(=O)[C@H](C)NC(=O)[C@@H](NC(=O)[C@H](CO)NC(=O)[C@H](Cc1ccc(O)cc1)NC(=O)[C@H](CC(=O)O)NC(=O)[C@H](CO)NC(=O)[C@@H](NC(=O)[C@H](Cc1ccccc1)NC(=O)[C@@H](NC(=O)CNC(=O)[C@@H](N)CCC(=O)O)[C@@H](C)O)[C@@H](C)CC)[C@@H](C)CC)[C@@H](C)CC)C(C)C)C(N)=O [AT106, [hGIP(3-30)NH2—C16/30]] | 64% | 
CC[C@H](C)[C@H](NC(=O)[C@H](CO)NC(=O)[C@H](Cc1ccc(O)cc1)NC(=O)[C@H](CC(=O)O)NC(=O)[C@H](CO)NC(=O)[C@@H](NC(=O)[C@H](Cc1ccccc1)NC(=O)[C@@H](N)[C@@H](C)O)[C@@H](C)CC)C(=O)N[C@@H](C)C(=O)N[C@@H](CCSC)C(=O)N[C@@H](CC(=O)O)C(=O)N[C@@H](CCCCN)C(=O)N[C@H](C(=O)N[C@@H](Cc1c[nH]cn1)C(=O)N[C@@H](CCC(N)=O)C(=O)N[C@@H](CCC(N)=O)C(=O)N[C@@H](CC(=O)O)C(=O)N[C@@H](Cc1ccccc1)C(=O)N[C@H](C(=O)N[C@@H](CC(N)=O)C(=O)N[C@@H](Cc1c[nH]c2ccccc12)C(=O)N[C@@H](CC(C)C)C(=O)N[C@@H](CC(C)C)C(=O)N[C@@H](C)C(=O)N[C@@H](CCC(N)=O)C(=O)N[C@@H](CCCCNC(=O)CCCCCCCCCCCCCCC(=O)O)C(N)=O)C(C)C)[C@@H](C)CC [AT372, [hGIP(5-30)NH2[Q30K]-C16diacid/30]] | 6% | 
CCCCCCCCCCCCCCCC(=O)NCCCC[C@H](NC(=O)[C@H](CCC(N)=O)NC(=O)[C@H](C)NC(=O)[C@H](CC(C)C)NC(=O)[C@H](CC(C)C)NC(=O)[C@H](Cc1c[nH]c2ccccc12)NC(=O)[C@H](CC(N)=O)NC(=O)[C@@H](NC(=O)[C@H](Cc1ccccc1)NC(=O)[C@H](CC(=O)O)NC(=O)[C@H](CCC(N)=O)NC(=O)[C@H](CCC(N)=O)NC(=O)[C@H](Cc1c[nH]cn1)NC(=O)[C@@H](NC(=O)[C@H](CCCCN)NC(=O)[C@H](CC(=O)O)NC(=O)[C@H](CCSC)NC(=O)[C@H](C)NC(=O)[C@@H](NC(=O)[C@H](CO)NC(=O)[C@H](Cc1ccc(O)cc1)NC(=O)[C@H](CC(=O)O)NC(=O)[C@H](CO)NC(=O)[C@@H](NC(=O)[C@H](Cc1ccccc1)NC(=O)[C@@H](N)[C@@H](C)O)[C@@H](C)CC)[C@@H](C)CC)[C@@H](C)CC)C(C)C)C(N)=O [AT126, [hGIP(5-30)NH2—C16/30]] | 75% | 316 nM
CC[C@H](C)[C@H](NC(=O)[C@H](CO)NC(=O)[C@H](Cc1ccc(O)cc1)NC(=O)[C@H](CC(=O)O)NC(=O)[C@H](CO)NC(=O)[C@@H](NC(=O)[C@H](Cc1ccccc1)NC(=O)[C@@H](NC(=O)[C@H](CCCCNC(=O)CCCCCCCCCCCCCCC(=O)O)NC(=O)[C@@H](N)CCC(=O)O)[C@@H](C)O)[C@@H](C)CC)C(=O)N[C@@H](C)C(=O)N[C@@H](CCSC)C(=O)N[C@@H](CC(=O)O)C(=O)N[C@@H](CCCCN)C(=O)N[C@H](C(=O)N[C@@H](Cc1c[nH]cn1)C(=O)N[C@@H](CCC(N)=O)C(=O)N[C@@H](CCC(N)=O)C(=O)N[C@@H](CC(=O)O)C(=O)N[C@@H](Cc1ccccc1)C(=O)N[C@H](C(=O)N[C@@H](CC(N)=O)C(=O)N[C@@H](Cc1c[nH]c2ccccc12)C(=O)N[C@@H](CC(C)C)C(=O)N[C@@H](CC(C)C)C(=O)N[C@@H](C)C(=O)N[C@@H](CCC(N)=O)C(=O)N[C@@H](CCCCN)C(N)=O)C(C)C)[C@@H](C)CC [AT295, [hGIP(3-30)NH2[G4K]-C16diacid/4]] | 78.6% | 2.6 nM
